The results in this text go back to article PMC8875392, “Design and Characterization of Myristoylated and Non-Myristoylated Peptides Effective against Candida spp. Clinical Isolates” (International Journal of Molecular Sciences, 2022).

Usually MIC stands for the lowest concentration found to suppress growth. A higher MIC goes with a need for much substance. The MIC90 is an inhibitory concentration at the 90% level, which refers to growth in some studies and to a panel of isolates in others.

The subject of series [1] is C. glabrata clinical isolates. Format: cell-based, Candida glabrata. Conditions: 16 h. As to the method:
(§1) The antifungal activity of AMPs was determined against 50 clinical isolates, 10 for each of the following Candida species: C. albicans, C. tropicalis, C. glabrata, C. parapsilosis, and C. auris. The latter were derived from patients with positive blood cultures in four hospitals in India, with known resistance profiles to fluconazole, voriconazole, and echinocandins. Yeast cells were grown in Brain Heart Infusion (BHI) medium (Sigma-Aldrich, Gillingham, UK) for 16 h at 37 °C in a 150-rpm orbital shaker. Cells were then sub-inoculated in a fresh BHI medium and grown to an optical density (OD) of 0.3. The turbidity of the inoculum was adjusted to 0.5 McFarland and diluted 1:500 in RPMI 1640 broth, corresponding to around […].
(§2) Minimal inhibitory concentrations (MICs) were determined by Broth microdilution susceptibility tests, according to The Clinical and Laboratory Standards Institute (CLSI) international guidelines. A fungal suspension of 0.5 MacFarland was diluted 1:500 in RPMI 1640 broth and incubated in 96 multi-well plates containing AMPs at different concentrations ranging from 0.125 to 256 μg/mL. In this range of concentration, lipopeptides were completely soluble. […] The MIC90 represents the value at which ≥90% of the strains within a test population were inhibited.

In series [2] the test system is C. tropicalis clinical isolates. Format: cell-based, Candida tropicalis. Conditions: clinical isolates, 16 h. As to the method:
as §1, §2

Series [3] deals with C. parapsilosis clinical isolates. It is filed as cell-based, Candida parapsilosis. The settings on record: clinical isolates, 16 h. The protocol: as §1, §2
The test system of series [4] is C. albicans clinical isolates. It is filed as cell-based, Candida albicans. Conditions: 16 h. The protocol: as §1, §2
In series [5] the test system is C. auris clinical isolates. Format: cell-based, Candida auris. The settings on record: clinical isolates, 16 h. As to the method: as §1, §2
Series [6] concerns Galleria mellonella larvae. The series can be described thus: In vivo peptide toxicity in Galleria mellonella model. The settings on record: uninfected larvae, groups of ten, peptide 640 µg/mL, single injection, 30 °C. As to the method: Multidrug-resistant C. auris was chosen as a representative species for in vivo studies. […] Groups of ten G. mellonella larvae were infected with C. auris and treated with the Pep-B and Myr-B peptides at a concentration of 640 µg/mL (about 400 µM).
Ten larvae (250–320 mg each) were selected at random for each step in the procedure. Any larvae with darkening of the cuticle were discarded. The test compounds and yeast were injected into the hemocoel in water buffer through the last left proleg (Insumed 30G Pic, Italy, syringe volume 0.5 mL, needle size 30G). The larvae were incubated in the dark for 3 days, and mortality was recorded daily.
For the peptide efficacy experiment, ten larvae were injected into the last left proleg with a pre-determined infective dose of yeast and the dose of peptides at the same time in a final volume of 10 μL and incubated at 30 °C. Each step in the procedure included six groups of 10 larvae: C. auris-infected larvae (10^7 CFU), infected and treated larvae with peptide B (640 μg/mL), infected and treated larvae with peptide Myr-B (640 μg/mL), treated larvae with peptide B (640 μg/mL), treated larvae with peptide Myr-B (640 μg/mL), and vehicle-injected control (water). The mortality was recorded daily for 3 days.

Series [7] deals with rabbit erythrocytes. The settings on record: 5 µM.
Procedure: The hemolytic assay was performed on rabbit erythrocytes (Rockland) maintained in Alsever’s solution (Innovative Research). Briefly, after the removal of Alsever’s solution, the erythrocytes were resuspended in PBS and counted in a hemocytometer. A suspension of 5,000,000 red blood cells was incubated with four dilutions (from 5 µm to 50 µm) of the six peptides in a 96-well microplate. As a negative control, erythrocytes were incubated without the peptides, while as a positive control, erythrocyte was added with triton 10% v/v. The plate was incubated at 37 °C for 2 h and subsequently centrifuged at 1200 rpm × 3 min to separate the pellet from the supernatant. The absorbance of the supernatant was measured at 492 nm. Each point was made in triplicate. The relative OD compared to the positive control defined the percentage of hemolysis [71]. Statistical analysis was performed using two-way ANOVA analysis followed by Bonferroni’s post-test.

Where no end group is shown, it is not given here.

For the sequence WVVKKVKGLLK [Pep-C], the minimum inhibitory concentration (MIC) in series [1], in series [3] and in series [4] was more than 256 µg/mL throughout. In addition, the MIC90 in series [1], in series [2], in series [3], in series [4] and in series [5] was more than 256 µg/mL throughout.
For the sequence WRGITKVVKKV [Pep-B], the MIC in series [1], in series [3] and in series [4] was more than 256 µg/mL throughout. The MIC90 in series [1], in series [2], in series [3], in series [4] and in series [5] was more than 256 µg/mL each time. Also, the “Peptide toxicity, DAY 1 Dead” value in series [6] worked out at 3. In addition, the “Peptide toxicity, DAY 2 Dead” value in series [6] was determined as 5. In addition, the “Peptide toxicity, DAY 3 Dead” value in series [6] is listed as 9.
For WFGKLYRGITK [Pep-A], the MIC in series [1], in series [3] and in series [4] was more than 256 µg/mL each time. The MIC90 in series [1], in series [2], in series [3], in series [4] and in series [5] was more than 256 µg/mL each time. Moreover, the hemolysis in series [7] is on record as 0.1%.
